Laboratory results from PMC7407272, “Induction of Lysosome Membrane Permeabilization as a Therapeutic Strategy to Target Pancreatic Cancer Stem Cells” (Cancers, 2020).

Assays:
[1] = molecular target: T1, TAOK1 (Homo sapiens, UniProt Q7L7X3); assay: KINOMEscan; assay type: binding; settings: read-out: % Ctrl
T1 construct: purchased DiscoveRx KINOMEscan

[2] = molecular target: T2, RET(V804L) (Homo sapiens, UniProt P07949, V804L); assay: KINOMEscan; assay type: binding; settings: read-out: % Ctrl
T2 construct: purchased DiscoveRx KINOMEscan

[3] = tested on: re-plated PDAC2-derived spheres; assay: Cytosolic cysteine cathepsin activity; assay type: cell-based, human; settings: 1.25 or 2.5 µM, 6 h
Procedure: Spheres were re-plated, and then treated the following day with the indicated concentration of compounds for 6 h in CSC media. Cells were subsequently placed on ice and extracted with either 25 µg/mL or 250 µg/mL of digitonin in 250 mM sucrose, 20 mM HEPES, 10 mM KCl, 1.5 mM MgCl2, 1 mM EDTA, 1 mM EGTA, 1 mM pefablock, pH 7.5. The extracts were taken and spun down briefly to eliminate floating cells. Cathepsin activity was measured in a 96 well format by measuring cleavage of zFR-AMC (Z-Phe-Arg-AMC. Z: N-carbobenzyloxy; 7-Amino-4-methylcoumarin), as previously described.

[4] = molecular target: T3, ROS1 (Homo sapiens, UniProt P08922); assay: KINOMEscan; assay type: binding; settings: read-out: % Ctrl
T3 construct: purchased DiscoveRx KINOMEscan

[5] = molecular target: T4, DMPK (Homo sapiens, UniProt Q09013); assay: KINOMEscan; assay type: binding; settings: read-out: % Ctrl
T4 construct: purchased DiscoveRx KINOMEscan

[6] = molecular target: T5, BRSK1 (Homo sapiens, UniProt Q8TDC3); assay: KINOMEscan; assay type: binding; settings: read-out: % Ctrl
T5 construct: purchased DiscoveRx KINOMEscan

[7] = molecular target: T6, MST3 (Homo sapiens, UniProt Q9Y6E0); assay: KINOMEscan; assay type: binding; settings: read-out: % Ctrl
T6 construct: purchased DiscoveRx KINOMEscan

[8] = molecular target: T7, PRKD3 (Homo sapiens, UniProt O94806); assay: KINOMEscan; assay type: binding; settings: read-out: % Ctrl
T7 construct: purchased DiscoveRx KINOMEscan

[9] = molecular target: T8, PLK3 (Homo sapiens, UniProt Q9H4B4); assay: KINOMEscan; assay type: binding; settings: read-out: % Ctrl
T8 construct: purchased DiscoveRx KINOMEscan

[10] = molecular target: T9, FGFR4 (Homo sapiens, UniProt P22455); assay: KINOMEscan; assay type: binding; settings: read-out: % Ctrl
T9 construct: purchased DiscoveRx KINOMEscan

[11] = molecular target: T10, PIK3CA(H1047L) (Homo sapiens, UniProt P42336, H1047L); assay: KINOMEscan; assay type: binding; settings: read-out: % Ctrl
T10 construct: purchased DiscoveRx KINOMEscan

[12] = molecular target: T11, SNARK (Homo sapiens, UniProt Q9H093); assay: KINOMEscan; assay type: binding; settings: read-out: % Ctrl
T11 construct: purchased DiscoveRx KINOMEscan

[13] = molecular target: T12, MELK (Homo sapiens, UniProt Q14680); assay: KINOMEscan; assay type: binding; settings: read-out: % Ctrl
T12 construct: purchased DiscoveRx KINOMEscan

[14] = molecular target: T13, ADCK4 (Homo sapiens, UniProt Q96D53); assay: KINOMEscan; assay type: binding; settings: read-out: % Ctrl
T13 construct: purchased DiscoveRx KINOMEscan

[15] = molecular target: T14, RSK1(KD1-N-t.) (Homo sapiens, UniProt Q15418); assay: KINOMEscan; assay type: binding; settings: read-out: % Ctrl
T14 construct: RSK1(KD1-N-t.); purchased DiscoveRx KINOMEscan

[16] = molecular target: T15, ADCK3 (Homo sapiens, UniProt Q8NI60); assay: KINOMEscan; assay type: binding; settings: read-out: % Ctrl
T15 construct: purchased DiscoveRx KINOMEscan
T15 sequence (Q8NI60 163-647): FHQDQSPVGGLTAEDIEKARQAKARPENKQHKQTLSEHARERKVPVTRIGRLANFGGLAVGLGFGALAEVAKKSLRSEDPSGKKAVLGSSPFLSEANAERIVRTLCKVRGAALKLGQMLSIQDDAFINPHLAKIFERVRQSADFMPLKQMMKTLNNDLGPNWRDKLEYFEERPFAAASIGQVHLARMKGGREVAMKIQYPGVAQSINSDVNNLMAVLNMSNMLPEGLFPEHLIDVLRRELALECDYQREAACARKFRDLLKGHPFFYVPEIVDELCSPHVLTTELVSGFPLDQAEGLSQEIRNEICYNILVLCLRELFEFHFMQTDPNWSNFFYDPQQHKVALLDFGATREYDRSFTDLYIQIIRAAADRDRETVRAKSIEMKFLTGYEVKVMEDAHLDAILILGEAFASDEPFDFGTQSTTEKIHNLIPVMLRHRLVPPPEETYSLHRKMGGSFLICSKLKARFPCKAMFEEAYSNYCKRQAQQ

[17] = molecular target: T16, PFCDPK1(P.falciparum) (Plasmodium falciparum, UniProt P62344); assay: KINOMEscan; assay type: binding; settings: read-out: % Ctrl
T16 construct: purchased DiscoveRx KINOMEscan

[18] = molecular target: T17, MEK5 (Homo sapiens, UniProt Q13163); assay: KINOMEscan; assay type: binding; settings: read-out: % Ctrl
T17 construct: purchased DiscoveRx KINOMEscan
T17 sequence (Q13163 whole entry): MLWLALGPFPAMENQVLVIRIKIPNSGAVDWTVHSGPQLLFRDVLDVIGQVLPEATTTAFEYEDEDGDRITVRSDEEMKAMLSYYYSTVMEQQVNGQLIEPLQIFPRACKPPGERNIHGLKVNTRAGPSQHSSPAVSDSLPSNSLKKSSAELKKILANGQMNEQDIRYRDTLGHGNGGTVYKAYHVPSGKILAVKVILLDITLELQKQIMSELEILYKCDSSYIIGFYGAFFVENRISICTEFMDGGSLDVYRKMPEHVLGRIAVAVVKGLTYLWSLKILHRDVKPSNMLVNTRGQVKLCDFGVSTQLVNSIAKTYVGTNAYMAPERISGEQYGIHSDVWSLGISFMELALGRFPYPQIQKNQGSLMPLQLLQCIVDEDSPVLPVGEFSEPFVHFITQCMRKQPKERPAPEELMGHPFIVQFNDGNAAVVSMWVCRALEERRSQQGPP

[19] = molecular target: T18, ERBB4 (Homo sapiens, UniProt Q15303); assay: KINOMEscan; assay type: binding; settings: read-out: % Ctrl
T18 construct: purchased DiscoveRx KINOMEscan
T18 sequence (Q15303 26-1308): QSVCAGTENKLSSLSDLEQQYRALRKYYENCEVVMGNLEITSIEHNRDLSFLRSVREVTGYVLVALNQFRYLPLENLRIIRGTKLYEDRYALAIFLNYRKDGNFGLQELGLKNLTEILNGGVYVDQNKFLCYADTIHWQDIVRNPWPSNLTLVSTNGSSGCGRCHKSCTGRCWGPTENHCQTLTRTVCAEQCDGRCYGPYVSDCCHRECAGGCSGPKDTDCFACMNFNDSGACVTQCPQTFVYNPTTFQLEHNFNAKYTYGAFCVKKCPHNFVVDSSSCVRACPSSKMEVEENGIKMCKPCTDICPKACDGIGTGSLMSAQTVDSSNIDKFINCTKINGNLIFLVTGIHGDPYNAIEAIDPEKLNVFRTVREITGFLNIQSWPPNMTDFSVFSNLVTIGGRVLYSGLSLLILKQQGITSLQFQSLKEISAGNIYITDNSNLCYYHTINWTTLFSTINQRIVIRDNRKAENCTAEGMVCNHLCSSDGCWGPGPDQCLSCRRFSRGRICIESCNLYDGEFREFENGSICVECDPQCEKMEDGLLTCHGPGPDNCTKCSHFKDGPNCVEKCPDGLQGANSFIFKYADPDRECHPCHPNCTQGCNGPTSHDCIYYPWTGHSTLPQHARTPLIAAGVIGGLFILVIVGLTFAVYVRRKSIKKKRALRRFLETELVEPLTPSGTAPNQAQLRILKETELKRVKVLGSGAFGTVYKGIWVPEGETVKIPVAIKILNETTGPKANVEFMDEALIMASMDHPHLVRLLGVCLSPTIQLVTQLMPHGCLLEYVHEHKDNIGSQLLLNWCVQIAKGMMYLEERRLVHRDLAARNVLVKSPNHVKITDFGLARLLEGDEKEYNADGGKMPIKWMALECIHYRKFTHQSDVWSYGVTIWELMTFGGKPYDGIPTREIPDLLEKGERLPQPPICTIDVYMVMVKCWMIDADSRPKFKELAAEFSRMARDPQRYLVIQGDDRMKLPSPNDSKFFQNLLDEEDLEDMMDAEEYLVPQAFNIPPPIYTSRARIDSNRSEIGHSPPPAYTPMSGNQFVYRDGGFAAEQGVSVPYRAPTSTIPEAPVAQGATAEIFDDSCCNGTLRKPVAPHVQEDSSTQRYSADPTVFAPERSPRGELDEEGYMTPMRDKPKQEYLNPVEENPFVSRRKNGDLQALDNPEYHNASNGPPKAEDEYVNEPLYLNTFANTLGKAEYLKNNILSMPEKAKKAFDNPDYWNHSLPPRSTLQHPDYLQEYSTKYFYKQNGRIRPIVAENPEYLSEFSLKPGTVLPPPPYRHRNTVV

[20] = molecular target: T19, SgK110 (Homo sapiens, UniProt P0C264); assay: KINOMEscan; assay type: binding; settings: read-out: % Ctrl
T19 construct: purchased DiscoveRx KINOMEscan

[21] = molecular target: T20, EPHB4 (Homo sapiens, UniProt P54760); assay: KINOMEscan; assay type: binding; settings: read-out: % Ctrl
T20 construct: purchased DiscoveRx KINOMEscan

[22] = molecular target: T21, JAK1(JH2D.-pseudoK.) (Homo sapiens, UniProt P23458); assay: KINOMEscan; assay type: binding; settings: read-out: % Ctrl
T21 construct: JAK1(JH2D.-pseudoK.); purchased DiscoveRx KINOMEscan
T21 sequence (P23458 583-855 limits assumed): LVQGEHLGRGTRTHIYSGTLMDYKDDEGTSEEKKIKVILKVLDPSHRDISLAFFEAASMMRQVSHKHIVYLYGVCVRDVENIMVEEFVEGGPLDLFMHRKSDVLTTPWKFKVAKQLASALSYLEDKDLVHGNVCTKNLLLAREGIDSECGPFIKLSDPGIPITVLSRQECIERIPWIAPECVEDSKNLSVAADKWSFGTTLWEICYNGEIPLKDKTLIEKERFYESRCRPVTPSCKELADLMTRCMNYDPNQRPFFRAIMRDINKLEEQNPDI

[23] = molecular target: T22, PAK6 (Homo sapiens, UniProt Q9NQU5); assay: KINOMEscan; assay type: binding; settings: read-out: % Ctrl
T22 construct: purchased DiscoveRx KINOMEscan
T22 sequence (Q9NQU5 whole entry): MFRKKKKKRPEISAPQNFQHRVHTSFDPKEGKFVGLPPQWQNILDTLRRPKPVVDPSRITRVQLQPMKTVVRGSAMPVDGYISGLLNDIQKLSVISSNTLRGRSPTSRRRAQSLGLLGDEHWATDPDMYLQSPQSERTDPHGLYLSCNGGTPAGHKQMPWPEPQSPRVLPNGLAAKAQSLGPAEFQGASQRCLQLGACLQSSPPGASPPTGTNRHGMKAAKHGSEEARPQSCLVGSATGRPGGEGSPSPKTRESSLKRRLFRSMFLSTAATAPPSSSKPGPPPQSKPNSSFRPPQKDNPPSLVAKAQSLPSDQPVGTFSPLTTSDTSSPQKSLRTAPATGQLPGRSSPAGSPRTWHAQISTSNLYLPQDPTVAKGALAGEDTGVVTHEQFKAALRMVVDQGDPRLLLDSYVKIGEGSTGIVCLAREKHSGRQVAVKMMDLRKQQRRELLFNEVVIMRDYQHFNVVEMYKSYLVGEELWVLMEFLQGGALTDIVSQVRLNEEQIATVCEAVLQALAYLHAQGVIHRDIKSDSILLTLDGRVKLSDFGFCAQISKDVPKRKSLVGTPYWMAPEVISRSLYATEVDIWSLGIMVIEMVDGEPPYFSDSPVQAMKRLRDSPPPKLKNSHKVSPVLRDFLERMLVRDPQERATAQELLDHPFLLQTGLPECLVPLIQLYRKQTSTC

[24] = molecular target: T23, PFPK5(P.falciparum) (Plasmodium falciparum, UniProt P61075); assay: KINOMEscan; assay type: binding; settings: read-out: % Ctrl
T23 construct: purchased DiscoveRx KINOMEscan

[25] = molecular target: T24, OSR1 (Homo sapiens, UniProt O95747); assay: KINOMEscan; assay type: binding; settings: read-out: % Ctrl
T24 construct: purchased DiscoveRx KINOMEscan

[26] = molecular target: T25, FGR (Homo sapiens, UniProt P09769); assay: KINOMEscan; assay type: binding; settings: read-out: % Ctrl
T25 construct: purchased DiscoveRx KINOMEscan

[27] = molecular target: T26, BRSK2 (Homo sapiens, UniProt Q8IWQ3); assay: KINOMEscan; assay type: binding; settings: read-out: % Ctrl
T26 construct: purchased DiscoveRx KINOMEscan

[28] = molecular target: T27, BRAF(V600E) (Homo sapiens, UniProt P15056, V600E); assay: KINOMEscan; assay type: binding; settings: read-out: % Ctrl
T27 construct: purchased DiscoveRx KINOMEscan

[29] = molecular target: T28, MARK2 (Homo sapiens, UniProt Q7KZI7); assay: KINOMEscan; assay type: binding; settings: read-out: % Ctrl
T28 construct: purchased DiscoveRx KINOMEscan

[30] = molecular target: T29, MST2 (Homo sapiens, UniProt Q13188); assay: KINOMEscan; assay type: binding; settings: read-out: % Ctrl
T29 construct: purchased DiscoveRx KINOMEscan

[31] = molecular target: T30, CDK5 (Homo sapiens, UniProt Q00535); assay: KINOMEscan; assay type: binding; settings: read-out: % Ctrl
T30 construct: purchased DiscoveRx KINOMEscan

[32] = molecular target: T31, PIK4CB (Homo sapiens, UniProt Q9UBF8); assay: KINOMEscan; assay type: binding; settings: read-out: % Ctrl
T31 construct: purchased DiscoveRx KINOMEscan
T31 sequence (Q9UBF8 whole entry): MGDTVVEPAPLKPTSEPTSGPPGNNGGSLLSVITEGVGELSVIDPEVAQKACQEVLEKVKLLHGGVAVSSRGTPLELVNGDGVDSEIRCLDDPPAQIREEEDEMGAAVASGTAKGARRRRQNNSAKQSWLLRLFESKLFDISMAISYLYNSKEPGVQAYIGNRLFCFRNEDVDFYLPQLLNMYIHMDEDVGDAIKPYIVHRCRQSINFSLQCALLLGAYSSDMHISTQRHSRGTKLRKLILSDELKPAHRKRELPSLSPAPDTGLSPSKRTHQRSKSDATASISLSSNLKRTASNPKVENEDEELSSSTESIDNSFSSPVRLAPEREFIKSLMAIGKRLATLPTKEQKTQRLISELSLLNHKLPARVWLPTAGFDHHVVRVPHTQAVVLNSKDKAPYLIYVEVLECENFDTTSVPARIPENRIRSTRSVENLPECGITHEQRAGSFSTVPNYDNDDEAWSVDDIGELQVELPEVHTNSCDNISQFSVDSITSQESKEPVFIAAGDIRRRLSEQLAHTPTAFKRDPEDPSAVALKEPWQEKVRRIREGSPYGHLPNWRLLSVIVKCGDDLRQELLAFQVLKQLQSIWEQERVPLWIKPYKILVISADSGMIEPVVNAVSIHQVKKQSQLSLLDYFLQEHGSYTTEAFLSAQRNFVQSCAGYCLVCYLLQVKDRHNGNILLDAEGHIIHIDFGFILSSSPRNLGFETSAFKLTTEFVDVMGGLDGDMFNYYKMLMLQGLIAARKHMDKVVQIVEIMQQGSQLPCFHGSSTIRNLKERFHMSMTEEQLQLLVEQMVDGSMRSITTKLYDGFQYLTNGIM

[33] = molecular target: T32, FLT3(N841I) (Homo sapiens, UniProt P36888, N841I); assay: KINOMEscan; assay type: binding; settings: read-out: % Ctrl
T32 construct: purchased DiscoveRx KINOMEscan

T1 sequence (Q7L7X3 whole entry): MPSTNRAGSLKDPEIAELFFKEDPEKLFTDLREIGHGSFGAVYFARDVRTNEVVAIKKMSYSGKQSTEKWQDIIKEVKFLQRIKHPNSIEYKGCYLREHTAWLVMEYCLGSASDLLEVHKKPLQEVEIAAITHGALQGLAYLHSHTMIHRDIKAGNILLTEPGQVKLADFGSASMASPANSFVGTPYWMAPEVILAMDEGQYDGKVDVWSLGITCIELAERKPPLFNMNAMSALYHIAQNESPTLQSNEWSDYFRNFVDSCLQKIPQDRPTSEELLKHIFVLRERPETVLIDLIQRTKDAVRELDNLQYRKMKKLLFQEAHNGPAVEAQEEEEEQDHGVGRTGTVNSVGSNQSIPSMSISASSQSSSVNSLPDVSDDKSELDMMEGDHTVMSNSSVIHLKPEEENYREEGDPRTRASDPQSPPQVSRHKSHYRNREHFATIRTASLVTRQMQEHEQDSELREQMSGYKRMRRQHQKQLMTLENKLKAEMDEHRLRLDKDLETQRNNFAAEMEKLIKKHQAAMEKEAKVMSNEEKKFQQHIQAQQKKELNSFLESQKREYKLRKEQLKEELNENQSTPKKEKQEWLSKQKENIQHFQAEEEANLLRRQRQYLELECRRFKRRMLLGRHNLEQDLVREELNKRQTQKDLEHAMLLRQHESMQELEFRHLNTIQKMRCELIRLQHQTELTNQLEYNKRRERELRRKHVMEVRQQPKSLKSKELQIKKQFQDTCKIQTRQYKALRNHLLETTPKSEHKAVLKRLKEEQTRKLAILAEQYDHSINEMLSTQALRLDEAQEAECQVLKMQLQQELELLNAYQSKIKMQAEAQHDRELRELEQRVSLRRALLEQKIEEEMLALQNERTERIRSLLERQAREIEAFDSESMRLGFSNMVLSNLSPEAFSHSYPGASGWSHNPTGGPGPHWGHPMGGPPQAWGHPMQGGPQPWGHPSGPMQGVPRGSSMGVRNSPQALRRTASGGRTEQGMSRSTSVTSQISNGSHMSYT

For `CN1CCC(CNc2ccc3ncc(C(=O)Nc4cccc(OC(F)(F)F)c4)n3n2)CC1` [Cpd 2], the remaining binding at 1 µM [1] was 82%, the remaining binding at 1 µM [2] was 100% and the “cytosolic cysteine cathepsin activity” value [3] was “increased cytosolic cysteine cathepsin activity”. It also gave a remaining binding at 1 µM [4] of 91%, a remaining binding at 1 µM [5] of 88% and a remaining binding at 1 µM [6] of 100%. It also gave a remaining binding at 1 µM [7] of 96%, a remaining binding at 1 µM [8] of 92% and a remaining binding at 1 µM [9] of 97%. The remaining binding at 1 µM [10] was 100%, the remaining binding at 1 µM [11] was 93% and the remaining binding at 1 µM [12] was 89%. The remaining binding at 1 µM [13] was 100%, the remaining binding at 1 µM [14] was 99% and the remaining binding at 1 µM [15] was 97%. The remaining binding at 1 µM [16] was 100%, the remaining binding at 1 µM [17] was 88% and the remaining binding at 1 µM [18] was 73%. The remaining binding at 1 µM [19] was 100%, the remaining binding at 1 µM [20] was 72% and the remaining binding at 1 µM [21] was 93%. It also gave a remaining binding at 1 µM [22] of 100%, a remaining binding at 1 µM [23] of 98% and a remaining binding at 1 µM [24] of 97%. The remaining binding at 1 µM [25] was 100%, the remaining binding at 1 µM [26] was 77% and the remaining binding at 1 µM [27] was 100%. For the same compound, the remaining binding at 1 µM [28] was 100%, the remaining binding at 1 µM [29] was 96% and the remaining binding at 1 µM [30] was 100%. For the same compound, the remaining binding at 1 µM [31] was 100%, the remaining binding at 1 µM [32] was 99% and the remaining binding at 1 µM [33] was 60%.
